Results reported in US20070134261A1, “Effectors of innate immunity” (priority 2001, published 2007).
Read-outs that look alike come from different tables or passages of the source.

What was measured:
Type in all cases: cell-based
[1] = system: A549 human epithelial cells; test: LPS induced IL-8 production in A549 cells (ELISA); conditions: 100 ng/ml E. coli O111:B4 LPS, 24 hours
whole human blood = conditions: 4 hr (0 μg/ml: 3205)
[2] = system: THP-1 cells (human monocytes); test: Induction of IL-8 in undifferentiated THP-1 cells
Method: The murine macrophage cell line RAW 264.7, THP-1 cells (human monocytes), a human epithelial cell line (A549), human bronchial epithelial cells (16HBEo14), and whole human blood were used. HBE cells were grown in MEM with Earle's. THP-1 cells were grown and maintained in RPMI 1640 medium. The RAW and A549 cell lines were maintained in DMEM supplemented with 10% fetal calf serum. […] DMEM was aspirated from cells grown overnight and replaced with fresh medium. After incubation of the cells with peptide, the release of chemokines into the culture supernatant was determined by ELISA (R&D Systems, Minneapolis, Minn.).

## CC[C@H](C)[C@H](N)C(=O)N[C@@H](CC(C)C)C(=O)N1CCC[C@H]1C(=O)N[C@@H](Cc1c[nH]c2ccccc12)C(=O)N[C@@H](CCCCN)C(=O)N[C@@H](Cc1c[nH]c2ccccc12)C(=O)N1CCC[C@H]1C(=O)N[C@@H](Cc1c[nH]c2ccccc12)C(=O)N[C@@H](Cc1c[nH]c2ccccc12)C(=O)N1CCC[C@H]1C(=O)N[C@@H](Cc1c[nH]c2ccccc12)C(=O)N[C@@H](CCCNC(=N)N)C(=O)N[C@@H](CCCNC(=N)N)C(N)=O [SEQ ID NO: 2]
[1]; SEQ ID NO: 2 0.1 μg/ml
  Inhibition of IL-8: 6.8 ± 9.6%
[1]; SEQ ID NO: 2 1 μg/ml
  Inhibition of IL-8: 12.8 ± 24.5%
[1]; SEQ ID NO: 2 10 μg/ml
  Inhibition of IL-8: 29.0 ± 26.0%
[1]; SEQ ID NO: 2 50 μg/ml
  Inhibition of IL-8: 39.8 ± 1.6%
[1]; SEQ ID NO: 2 100 μg/ml
  Inhibition of IL-8: 45.0 ± 3.5%
Whole human blood; 10 μg/ml peptide + E. coli O111:B4 LPS
  IL-8: 1912 pg/mL
Whole human blood; 50 μg/ml peptide + E. coli O111:B4 LPS
  IL-8: 1458 pg/mL
[2]
  induction of IL-8: significantly induced IL-8
